Measurements taken from ChEMBL document CHEMBL1201862, “PubChem BioAssay data set” (2004).
The source made the active and inactive calls.

Legend:
SUMO-activating enzyme = SUMO-activating enzyme (Homo sapiens, UniProt Q9UBT2); experiment: blockers of UBC9-mediated SUMO conjugation – biochemical, AlphaScreen, SUMOylation inhibitor project, confirmation (AID 2018); type: functional
[1] = biological target: Lysosomal acid glucosylceramidase (Homo sapiens, UniProt P04062); experiment: Dose response cell-based high throughput screening assay to identify enhancers of beta-glucosidase activity. [Related pubchem assays: 784 ]; type: functional
[2] = biological target: T1, Type-1 angiotensin II receptor (Homo sapiens, UniProt P30556); experiment: agonist activity at AGTR1 – cell-based, uHTS hits, selectivity assay for APJ receptor agonist project, dose response (AID 488865); type: functional;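 also: beta-arrestin recruitment to AT1 measured by enzyme fragment complementation luminescence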
T1 sequence (P30556 whole entry): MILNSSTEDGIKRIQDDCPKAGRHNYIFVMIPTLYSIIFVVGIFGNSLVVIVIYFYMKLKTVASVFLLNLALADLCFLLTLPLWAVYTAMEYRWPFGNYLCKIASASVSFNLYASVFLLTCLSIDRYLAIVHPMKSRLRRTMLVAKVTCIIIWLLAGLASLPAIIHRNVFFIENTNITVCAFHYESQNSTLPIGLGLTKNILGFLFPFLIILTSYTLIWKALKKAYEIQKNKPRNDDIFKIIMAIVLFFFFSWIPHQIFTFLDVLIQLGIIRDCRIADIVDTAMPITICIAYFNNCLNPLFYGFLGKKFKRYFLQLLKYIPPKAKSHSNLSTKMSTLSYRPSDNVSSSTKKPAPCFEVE

[3] = biological target: Neurotensin receptor type 1 (Homo sapiens, UniProt P30989); type: functional;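 also: Image-based confirmatory dose-response assay measuring agonist activity at NTR1; NTR1-expressing U2OS osteosarcoma cells imaged for beta-arrestin GFP spot formation; agonist potency where compounds increase beta-arrestin recruitment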
[4] = biological target: Polyadenylate-binding protein 1 (Homo sapiens, UniProt P11940); experiment: PABP inhibition in translation initiation, SAR follow-up (AID 435018); type: functional
[5] = biological target: Eukaryotic translation initiation factor 4H (Homo sapiens, UniProt Q15056); experiment: inhibitors of translation initiation factor eIF4H – SAR follow-up (AID 435011); type: functional
[6] = HEK-293T viability loss after treatment – luminescence, T-cell screen hits, cytotoxicity control for TCR NF-kB inhibitor project, dose response (AID 489026); type: functional, cell-based;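 also: cells exposed to compound about 14 hours before the viability readout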
[7] = luciferase reporter signal reduction – luminescence, H4-C neuroglioblastoma cells, dose response (AID 2458); type: functional, cell-based;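 also: H4 neuroglioblastoma cells stably carrying a luciferase reporter gene fusion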
cells = type: functional, cell-based
[8] = alpha-synuclein stem-loop luciferase translation blockers – H4 neuroglioma cells, luminescence, confirmation (AID 1988); type: functional, cell-based
[9] = NIH3T3 cell viability loss – ATP luminescence, mouse fibroblasts, counter-screen, dose response (AID 2010); type: functional, cell-based;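 also: cells exposed to compound for about 90 hours before reading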
[10] = Trypanosoma cruzi growth suppression in host cells – NIH3T3 host cells, beta-gal luminescence, confirmation (AID 2044); type: functional, cell-based;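 also: intracellular parasites grown in NIH/3T3 mouse fibroblasts as host cells; luminescent beta-galactosidase reporter signal from transgenic T. cruzi replicating inside host cells; inhibitors lower the luminescence signal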
[11] = Luminescence Cell-Based Dose Response HTS to Identify Inhibitors of 5'UTR Stem-Loop Driven Prion Protein mRNA Translation in H4 Neuroglioblastoma Cells. [Related pubchem assays: 1827 (Project Summary), 1813 (Primary HTS)]; type: functional
[12] = luciferase reporter signal suppression in cells – H4 neuroglioma cells, luminescence, dose response (AID 1990); type: functional, cell-based
[13] = alpha-synuclein stem-loop translation blockers – luminescence, H4 neuroglioblastoma cells, dose confirmation, confirmation (AID 2454); type: functional, cell-based;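 also: H4 neuroglioblastoma cells carrying an alpha-synuclein 5'UTR luciferase reporter; potency for inhibition of the luciferase signal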
[14] = biological target: 1-acylglycerol-3-phosphate O-acyltransferase ABHD5/Perilipin-5 (Homo sapiens, UniProt Q00G26+Q8WTS1); experiment: Luminescence-based biochemical high throughput dose response assay for inhibitors of the interaction of the lipase co-activator protein, abhydrolase domain containing 5 (ABHD5) with perilipin-5 (MLDP; PLIN5) (2K validation set). [Related pubchem assays (depositor defined):AID493035, AID493241]
Perilipin-1/ABHD5 = Perilipin-1/ABHD5 (Homo sapiens, UniProt O60240+Q8WTS1); experiment: Luminescence-based biochemical high throughput dose response assay for inhibitors of the interaction of the lipase co-activator protein, abhydrolase domain containing 5 (ABHD5) with perilipin-1 (PLIN1) (2K validation set). [Related pubchem assays (depositor defined):AID493027, AID493057]
[15] = biological target: Peroxisome proliferator-activated receptor gamma/Nuclear receptor coactivator 2 (Homo sapiens, UniProt P37231); experiment: TR-FRET dose response biochemical High Throughput Screening assay for agonists of the steroid receptor coactivator 2 (SRC-2) recruitment by the peroxisome proliferator-activated receptor gamma (PPAR gamma): non-selective agonists. [Related pubchem assays: 1297, 1032 ]; type: functional
[16] = biological target: T2, Ubiquitin-conjugating enzyme E2 N (Homo sapiens, UniProt P61088); type: functional
T2 sequence (P61088 whole entry): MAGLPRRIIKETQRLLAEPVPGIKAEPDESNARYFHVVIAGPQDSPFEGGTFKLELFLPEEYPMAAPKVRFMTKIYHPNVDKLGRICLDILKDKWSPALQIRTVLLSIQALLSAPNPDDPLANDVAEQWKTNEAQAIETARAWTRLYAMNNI

[17] = biological target: T2, Ubiquitin-conjugating enzyme E2 N; type: functional; remark: listed apart in the source
Bcl-2-related protein A1 = biological target: T3, Bcl-2-related protein A1 (Mus musculus, UniProt Q07440); type: functional;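 also: confirmatory dose–response counterscreen on Bfl-1, used to check hits from a UBC13 polyubiquitin inhibitor campaign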
T3 sequence (Q07440 whole entry): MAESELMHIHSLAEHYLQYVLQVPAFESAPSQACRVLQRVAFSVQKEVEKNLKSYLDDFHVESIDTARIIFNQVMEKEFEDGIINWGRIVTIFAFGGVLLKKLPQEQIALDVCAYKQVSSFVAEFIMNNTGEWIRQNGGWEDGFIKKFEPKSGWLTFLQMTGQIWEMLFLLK

[18] = biological target: Peroxisome proliferator-activated receptor gamma/Nuclear receptor coactivator 1 (Homo sapiens, UniProt P37231); experiment: TR-FRET dose response biochemical High Throughput Screening assay for agonists of the steroid receptor coactivator 1 (SRC-1) recruitment by the peroxisome proliferator-activated receptor gamma (PPAR gamma): non-selective agonists. [Related pubchem assays (depositor defined):AID1300, AID1808, AID504735, AID631]; type: protein assay
[19] = biological target: Peroxisome proliferator-activated receptor gamma/Nuclear receptor coactivator 3 (Homo sapiens, UniProt P37231); experiment: TR-FRET dose response biochemical High Throughput Screening assay for agonists of the steroid receptor coactivator 3 (SRC-3) recruitment by the peroxisome proliferator-activated receptor gamma (PPAR gamma): non-selective agonists. [Related pubchem assays: 1301 (Confirmation screen.), 1048 (Primary screen.)]; type: functional
Coagulation factor XII = Coagulation factor XII (Homo sapiens, UniProt P00748); type: functional;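 also: activated factor XIIa alpha cleaving a fluorogenic AMC peptide substrate; inhibitor potency from loss of enzyme activity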
[20] = biological target: Alkaline phosphatase, placental type (Homo sapiens, UniProt P05187); experiment: human placental alkaline phosphatase inhibition – biochemical, luminescence, confirmation (AID 1512); type: functional
[21] = biological target: T4, Alkaline phosphatase, tissue-nonspecific isozyme (Homo sapiens, UniProt P05186); experiment: potency against alkaline phosphatase TNAP – biochemical, luminescent, dose response, SAR follow-up (AID 1056)
T4 sequence (P05186 whole entry): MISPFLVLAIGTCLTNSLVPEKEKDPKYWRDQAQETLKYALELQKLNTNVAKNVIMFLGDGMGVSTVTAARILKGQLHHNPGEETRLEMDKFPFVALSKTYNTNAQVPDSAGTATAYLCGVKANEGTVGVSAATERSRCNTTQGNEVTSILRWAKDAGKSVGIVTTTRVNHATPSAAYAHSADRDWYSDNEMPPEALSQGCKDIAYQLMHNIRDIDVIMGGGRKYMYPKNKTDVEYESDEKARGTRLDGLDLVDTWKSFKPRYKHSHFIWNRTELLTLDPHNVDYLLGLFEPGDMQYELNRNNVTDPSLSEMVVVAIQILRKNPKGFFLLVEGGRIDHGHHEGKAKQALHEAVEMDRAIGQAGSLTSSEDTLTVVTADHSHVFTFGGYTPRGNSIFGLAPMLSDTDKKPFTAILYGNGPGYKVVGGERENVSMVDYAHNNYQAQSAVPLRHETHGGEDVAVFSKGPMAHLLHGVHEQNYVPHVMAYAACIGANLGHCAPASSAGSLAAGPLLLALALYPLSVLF

[22] = biological target: Glyceraldehyde-3-phosphate dehydrogenase (Homo sapiens, UniProt P04406)
[23] = biological target: T5, Dual specificity protein phosphatase 3 (Homo sapiens, UniProt P51452); experiment: VHR1 phosphatase inhibitors, biochemical (AID 1878)
[24] = biological target: T5, Dual specificity protein phosphatase 3; experiment: VHR1 phosphatase inhibitors, primary screen, biochemical, absorbance, uHTS (AID 1654)
[25] = biological target: DNA dC->dU-editing enzyme APOBEC-3G (Homo sapiens, UniProt Q9HC16); experiment: Dose Response confirmation of small molecule APOBEC3G DNA Deaminase Inhibitors via a fluorescence-based single-stranded DNA deaminase assay. [Related pubchem assays (depositor defined):AID493012, AID493028]; type: functional
[26] = biological target: T6, Dual specificity protein phosphatase 6 (Rattus norvegicus, UniProt Q64346); experiment: inhibition of rat DUSP6 enzyme activity – biochemical, in vitro, primary screen (AID 425)
T6 sequence (Q64346 whole entry): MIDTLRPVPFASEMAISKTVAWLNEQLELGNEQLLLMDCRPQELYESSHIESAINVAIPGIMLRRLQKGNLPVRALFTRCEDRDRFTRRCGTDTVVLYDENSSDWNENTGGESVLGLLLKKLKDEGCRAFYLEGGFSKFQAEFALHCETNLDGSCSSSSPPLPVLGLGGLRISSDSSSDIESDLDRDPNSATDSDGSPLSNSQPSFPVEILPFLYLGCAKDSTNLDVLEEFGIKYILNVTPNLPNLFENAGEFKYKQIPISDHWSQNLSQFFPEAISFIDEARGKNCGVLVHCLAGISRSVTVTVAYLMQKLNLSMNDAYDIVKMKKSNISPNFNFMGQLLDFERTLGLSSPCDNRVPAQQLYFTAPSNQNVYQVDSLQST

[27] = biological target: T4, Alkaline phosphatase, tissue-nonspecific isozyme

Chain of Coagulation factor XII (P00748 20-372 limits assumed): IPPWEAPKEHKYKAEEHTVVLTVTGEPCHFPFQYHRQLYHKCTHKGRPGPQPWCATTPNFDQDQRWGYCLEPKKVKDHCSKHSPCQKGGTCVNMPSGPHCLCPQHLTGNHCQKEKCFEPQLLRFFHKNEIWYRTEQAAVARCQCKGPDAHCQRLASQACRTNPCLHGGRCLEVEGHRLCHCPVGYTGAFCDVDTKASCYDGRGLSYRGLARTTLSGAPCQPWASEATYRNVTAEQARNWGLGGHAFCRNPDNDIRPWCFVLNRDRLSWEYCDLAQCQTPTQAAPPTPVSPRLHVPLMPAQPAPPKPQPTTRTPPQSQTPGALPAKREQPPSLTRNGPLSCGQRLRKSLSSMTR
Chain of Coagulation factor XII (P00748 373-615 limits assumed): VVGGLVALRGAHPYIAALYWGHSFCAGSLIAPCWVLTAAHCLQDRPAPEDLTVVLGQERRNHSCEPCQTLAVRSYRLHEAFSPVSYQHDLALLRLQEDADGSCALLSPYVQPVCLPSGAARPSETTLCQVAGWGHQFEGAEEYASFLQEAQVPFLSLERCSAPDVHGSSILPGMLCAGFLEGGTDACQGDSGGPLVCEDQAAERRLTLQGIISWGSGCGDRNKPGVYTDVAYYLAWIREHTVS
Chain of Lysosomal acid glucosylceramidase (P04062 whole entry, the tested form may be a part): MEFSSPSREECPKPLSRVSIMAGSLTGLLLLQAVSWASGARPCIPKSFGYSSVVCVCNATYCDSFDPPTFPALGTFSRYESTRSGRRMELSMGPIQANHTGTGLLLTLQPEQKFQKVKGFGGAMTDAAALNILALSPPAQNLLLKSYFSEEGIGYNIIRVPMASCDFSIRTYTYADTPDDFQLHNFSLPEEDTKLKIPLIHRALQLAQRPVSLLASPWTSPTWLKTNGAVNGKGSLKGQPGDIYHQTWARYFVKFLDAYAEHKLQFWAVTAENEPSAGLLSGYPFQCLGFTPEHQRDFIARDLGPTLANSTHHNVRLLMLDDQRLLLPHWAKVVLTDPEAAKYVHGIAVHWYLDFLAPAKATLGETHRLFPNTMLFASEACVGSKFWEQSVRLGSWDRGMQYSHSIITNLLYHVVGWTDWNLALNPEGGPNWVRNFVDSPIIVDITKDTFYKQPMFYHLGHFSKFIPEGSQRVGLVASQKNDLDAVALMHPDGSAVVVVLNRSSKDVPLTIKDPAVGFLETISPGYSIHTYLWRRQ
Chain of Neurotensin receptor type 1 (P30989 whole entry): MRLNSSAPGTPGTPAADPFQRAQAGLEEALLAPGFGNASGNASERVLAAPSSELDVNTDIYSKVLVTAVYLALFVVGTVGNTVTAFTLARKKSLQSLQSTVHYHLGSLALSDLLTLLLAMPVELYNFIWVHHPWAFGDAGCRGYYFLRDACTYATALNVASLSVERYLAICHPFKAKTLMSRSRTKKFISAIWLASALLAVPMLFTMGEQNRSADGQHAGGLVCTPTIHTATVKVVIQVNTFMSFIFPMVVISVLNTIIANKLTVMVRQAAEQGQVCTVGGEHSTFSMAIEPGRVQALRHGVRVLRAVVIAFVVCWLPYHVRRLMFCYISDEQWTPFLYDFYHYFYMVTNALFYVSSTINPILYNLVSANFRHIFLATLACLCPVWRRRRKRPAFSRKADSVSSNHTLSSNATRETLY
Chain of Perilipin-1/ABHD5 (Q8WTS1 whole entry, the tested form may be a part): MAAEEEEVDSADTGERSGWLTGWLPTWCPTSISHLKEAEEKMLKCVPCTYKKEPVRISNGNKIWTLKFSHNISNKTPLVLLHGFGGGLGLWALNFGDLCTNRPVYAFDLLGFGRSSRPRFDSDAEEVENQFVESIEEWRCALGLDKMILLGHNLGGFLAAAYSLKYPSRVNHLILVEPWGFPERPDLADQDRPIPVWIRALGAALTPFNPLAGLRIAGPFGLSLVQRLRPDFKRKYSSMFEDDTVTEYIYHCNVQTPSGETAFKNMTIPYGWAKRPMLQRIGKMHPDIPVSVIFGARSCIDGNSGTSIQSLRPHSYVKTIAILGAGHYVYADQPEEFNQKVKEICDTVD
Chain of Perilipin-1/ABHD5 (O60240 whole entry, the tested form may be a part): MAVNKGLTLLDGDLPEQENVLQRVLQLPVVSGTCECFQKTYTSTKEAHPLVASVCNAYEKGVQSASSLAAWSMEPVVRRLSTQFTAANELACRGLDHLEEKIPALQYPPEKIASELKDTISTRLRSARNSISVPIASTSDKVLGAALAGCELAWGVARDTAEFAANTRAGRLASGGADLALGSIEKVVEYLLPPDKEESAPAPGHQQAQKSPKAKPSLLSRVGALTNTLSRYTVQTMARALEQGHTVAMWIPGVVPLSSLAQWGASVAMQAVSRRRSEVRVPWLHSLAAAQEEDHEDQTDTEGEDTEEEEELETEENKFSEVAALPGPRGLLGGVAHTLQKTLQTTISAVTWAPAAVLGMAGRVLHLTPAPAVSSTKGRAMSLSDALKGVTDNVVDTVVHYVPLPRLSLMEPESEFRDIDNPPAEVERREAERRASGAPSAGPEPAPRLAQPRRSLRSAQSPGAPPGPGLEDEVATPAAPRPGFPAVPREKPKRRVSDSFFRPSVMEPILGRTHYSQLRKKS
T5 sequence (P51452 whole entry): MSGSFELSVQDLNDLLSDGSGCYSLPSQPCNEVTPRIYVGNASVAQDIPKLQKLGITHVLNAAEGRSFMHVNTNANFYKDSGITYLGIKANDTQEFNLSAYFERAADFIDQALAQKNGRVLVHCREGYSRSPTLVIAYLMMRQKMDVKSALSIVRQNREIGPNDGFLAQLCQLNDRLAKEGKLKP
Chain of 1-acylglycerol-3-phosphate O-acyltransferase ABHD5/Perilipin-5 (Q00G26 whole entry, the tested form may be a part): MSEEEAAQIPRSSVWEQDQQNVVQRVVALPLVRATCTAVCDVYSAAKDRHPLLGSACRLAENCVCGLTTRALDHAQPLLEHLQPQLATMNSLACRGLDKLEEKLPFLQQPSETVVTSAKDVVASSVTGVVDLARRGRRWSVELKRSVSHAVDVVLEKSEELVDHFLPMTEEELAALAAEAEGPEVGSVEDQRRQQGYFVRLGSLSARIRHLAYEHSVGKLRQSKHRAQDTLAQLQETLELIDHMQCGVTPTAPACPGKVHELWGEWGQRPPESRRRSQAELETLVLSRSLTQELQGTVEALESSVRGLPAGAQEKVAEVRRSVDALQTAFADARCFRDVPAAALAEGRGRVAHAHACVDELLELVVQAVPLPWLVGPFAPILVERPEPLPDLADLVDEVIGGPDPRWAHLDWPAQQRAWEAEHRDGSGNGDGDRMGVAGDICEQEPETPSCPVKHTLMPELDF
Chain of 1-acylglycerol-3-phosphate O-acyltransferase ABHD5/Perilipin-5 (Q8WTS1 whole entry, the tested form may be a part): as the sequence (Q8WTS1 whole entry, the tested form may be a part) above
Chain of Polyadenylate-binding protein 1 (P11940 whole entry): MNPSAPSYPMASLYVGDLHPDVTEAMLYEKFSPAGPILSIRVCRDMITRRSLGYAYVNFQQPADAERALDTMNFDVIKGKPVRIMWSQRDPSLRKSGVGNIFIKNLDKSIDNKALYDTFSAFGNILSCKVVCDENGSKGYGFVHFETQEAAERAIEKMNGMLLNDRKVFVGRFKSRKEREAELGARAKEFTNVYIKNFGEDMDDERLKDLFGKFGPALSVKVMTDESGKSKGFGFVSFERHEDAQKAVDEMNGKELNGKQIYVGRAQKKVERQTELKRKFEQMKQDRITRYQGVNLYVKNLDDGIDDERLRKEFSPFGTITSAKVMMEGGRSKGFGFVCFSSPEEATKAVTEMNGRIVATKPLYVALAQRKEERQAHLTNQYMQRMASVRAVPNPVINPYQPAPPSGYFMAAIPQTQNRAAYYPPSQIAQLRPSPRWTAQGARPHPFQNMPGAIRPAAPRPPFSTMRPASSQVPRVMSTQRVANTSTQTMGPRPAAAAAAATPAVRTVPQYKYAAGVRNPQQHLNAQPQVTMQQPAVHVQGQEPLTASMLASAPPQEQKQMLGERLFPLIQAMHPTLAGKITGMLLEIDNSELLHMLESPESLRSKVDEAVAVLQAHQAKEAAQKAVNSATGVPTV
Chain of Alkaline phosphatase, placental type (P05187 whole entry): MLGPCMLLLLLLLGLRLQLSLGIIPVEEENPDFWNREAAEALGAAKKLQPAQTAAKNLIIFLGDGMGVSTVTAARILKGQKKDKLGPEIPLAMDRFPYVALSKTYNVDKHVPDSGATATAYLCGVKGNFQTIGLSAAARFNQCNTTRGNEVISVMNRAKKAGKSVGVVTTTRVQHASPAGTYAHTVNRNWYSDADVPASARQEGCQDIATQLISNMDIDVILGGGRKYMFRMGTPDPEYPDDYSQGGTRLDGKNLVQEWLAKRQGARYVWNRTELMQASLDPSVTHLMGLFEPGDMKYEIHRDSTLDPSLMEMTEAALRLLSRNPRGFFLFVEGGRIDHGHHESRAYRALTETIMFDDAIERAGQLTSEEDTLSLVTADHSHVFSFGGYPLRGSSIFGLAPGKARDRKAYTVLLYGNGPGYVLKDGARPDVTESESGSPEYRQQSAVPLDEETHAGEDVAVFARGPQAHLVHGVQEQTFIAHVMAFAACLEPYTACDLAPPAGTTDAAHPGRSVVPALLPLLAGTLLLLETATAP

O=C(Nc1ccc(N2C(=O)C3C4C=CC(C4)C3C2=O)cc1)Nc1cccnc1 (configuration not stated)
IC50 (SUMO-activating enzyme): > 100 µM (inactive)

CCN(CC)c1nc2cc(OC)ccc2cc1C#N
EC50 [1]: > 10 µM (not active)

CCC(C)NC(=O)CSC1=Nc2ccccc2C2=NC(CC(=O)NCc3ccccc3)C(=O)N12 (configuration not stated)
EC50 [2]: > 100 µM (inactive)

COC(=O)c1ccc2c(=O)n(CCCCCC(=O)N3CCN(c4ccccc4)CC3)c(=O)[nH]c2c1
EC50 [3]: 17.6 µM (active)

Cc1ccccc1NC(=O)C1CCN(C(=O)c2cccs2)CC1
IC50 [4]: > 100 µM (inactive) | IC50 [5]: > 100 µM (inactive)

Cc1ccc(/C=N/NC(=O)CSc2nnc(-c3ccc(Cl)cc3)n2-c2ccccc2)o1
EC50 [2]: > 100 µM (inactive)

CC(=O)O[C@@]12CO[C@@H]1C[C@H](O)[C@@]1(C)C(=O)[C@H](O)C3=C(C)[C@@H](OC(=O)[C@H](O)[C@@H](NC(=O)c4ccccc4)c4ccccc4)C[C@@](O)([C@@H](OC(=O)c4ccccc4)C12)C3(C)C (some centres not stated)
IC50 [6]: > 80 µM (inactive) | EC50 [7]: 1.21 µM (active) | EC50 (cells): 1.78 µM (active) | EC50 [8]: < 0.1 µM (active) | EC50 [9]: 6.71 µM (active) | EC50 [10]: 0.132 µM (active) | EC50 [11]: > 120 µM (not active) | EC50 [12]: 9.95 µM (active) | EC50 [13]: 1.16 µM (active)

COc1ccc2c(c1)C=CC1(O2)N(CCO)c2ccccc2C1(C)C (configuration not stated)
IC50 [14]: 6.97 µM (active) | IC50 (Perilipin-1/ABHD5): 7.1 µM (active)

CCn1c(=O)cc(SCC(=O)N2CCN(C3CCCCC3)CC2)c2ccccc21
EC50 [15]: > 79.4 µM (not active) | IC50 [16]: 14.5 µM (active) | IC50 [17]: > 20 µM (inactive) | IC50 (Bcl-2-related protein A1): > 20 µM (inactive) | EC50 [18]: > 79.4 µM (inactive) | EC50 [19]: > 79.4 µM (not active)

CCOC(=O)c1sc(N(C)C(C)=O)nc1C
IC50 (Coagulation factor XII): > 50 µM (inactive)

NC(=S)N=Nc1c(O)n(CCCl)c2ccccc12
IC50 [16]: 18 µM (active) | IC50 [17]: 10.8 µM (active) | IC50 (Bcl-2-related protein A1): > 20 µM (inactive)

COc1ccccc1Cc1nc(N)nn1-c1ccccc1
IC50 [20]: > 100 µM (inactive) | IC50 [21]: > 100 µM (inactive) | IC50 [22]: > 100 µM (not active)

COC(=O)c1sc(NC(=O)c2cc(-c3ccccc3)nc3ccccc23)c(C#N)c1C
IC50 [23]: 2.08 µM (active) | IC50 [24]: 1.15 µM (active) | IC50 [25]: 28.6 µM (active) | IC50 [26]: > 158 µM (not active)

CCCCN(C)C(=O)CCCCn1c(=O)[nH]c2cc(OCC)c(OCC)cc2c1=O
EC50 [1]: > 10 µM (not active)

Cc1cccc(-n2c(CNC(=O)c3cccc([N+](=O)[O-])c3C)n[nH]c2=S)c1
EC50 [27]: > 100 µM (not active)

COc1ccc(NC(NC(=O)c2cccnc2)C(Cl)(Cl)Cl)cc1 (configuration not stated)
IC50 (Coagulation factor XII): > 50 µM (inactive)

O=C1c2ccc(Cl)cc2S(=O)(=O)c2cccc(C(=O)N3CCC(Cc4ccccc4)CC3)c21
EC50 [3]: 16.6 µM (active)

O=C(O)c1cc(-c2ccc(Cl)cc2Cl)[nH]n1
IC50 [20]: > 100 µM (inactive) | IC50 [21]: 0.392 µM (active) | IC50 [22]: > 100 µM (not active)

COc1ccc(/C=C\C(=O)c2c(O)ccc3c(C)cc(=O)oc23)cc1OC
IC50 [14]: 8.91 µM (active) | IC50 (Perilipin-1/ABHD5): 4.46 µM (active)

CC1Cc2ccccc2N1C(=O)COc1nc2ccccc2nc1N1CCOCC1 (configuration not stated)
EC50 [27]: > 100 µM (not active)

O=C(CSc1ccc(-c2ccco2)nn1)NCCc1ccccc1
IC50 [4]: > 100 µM (inactive) | IC50 [5]: 95.2 µM (active)
